“Also recorded” adds a separate entry of the source.
Assays:
CD8+ T cells [1] = test: HLA-A11 tetramer CyTOF screen of CRC patient PBMC; assay type: cell-based, human; conditions: 8 HLA-A11 positive CRC patients; for antigen specific CD8+ T cells detected in CRC patients: validation cohort
Description: To determine if CRC patients have CD8+ T cells that target any of the 102 peptides that were identified in Example 12, a CyTOF screen was conducted on a new cohort of 8 CRC patients (validation cohort) using MHC tetramer staining of PBMC (FIG. 19(a)). These CRC patients are all positive for HLA-A11.
The 102 peptides were chemically synthesized by Mimotopes. These peptides were loaded onto biotinylated HLA-A11 by UV-mediated exchange. Streptavidin, labelled with three heavy metal barcodes, was bound to the peptide-loaded HLA-A11 to make the HLA-tetramers used for staining PBMCs.
To increase the sensitivity of detecting antigen-specific T cells, two different sets of heavy metal barcodes were used for each peptide. PBMCs from each patient were stained with these two sets of peptide-loaded HLA tetramers. Frequency co-concordance was used as an indication of specific staining for rare events.

CD8+ T cells [2] = test: HLA-A24 tetramer CyTOF screen of CRC patient PBMC; assay type: cell-based, human; conditions: 10 HLA-A24 positive CRC patients, validation cohort
Description: To determine whether CRC patients have CD8+ T cells that target any of the 75 SVPs that bind to HLA-A24, a CyTOF screen was conducted on a new cohort of 10 HLA-A24 positive CRC patients (validation cohort) using MHC tetramer staining of PBMC (procedure for performing this screen is similar to that described in Example 13). In total, antigen-specific CD8+ T cells that target eight splice variant peptides were identified from this screen.

CD8+ T cells [3] = test: moDC/CD8+ T-cell co-culture of healthy donors, tetramer FACS (immunogenicity); assay type: cell-based, human; conditions: HLA-A11 positive healthy donors, SVP 2.5 μM loaded moDC, 10 days co-culture, PE/APC tetramers
Text: Antigen specific T-cells for LRR1, GRINA, and ZNF670 were initially identified in the SVP/HLA-A11 tetramer CyTOF screen (as described in Example 13). The immunogenicity of these targets was further assessed by testing whether antigen specific T-cells could be expanded in the PBMC of healthy donors who were HLA-A11 positive. PBMC were obtained from healthy donors and an aliquot was used to isolate monocytes (CD14 positive selection kit, STEMCELL Technologies) for subsequent differentiation to dendritic cells. Briefly, differentiation of monocytes to dendritic cells was carried out by culturing the isolated CD14 cells with IL4 (10 ng/ml) and GM-CSF (800 IU/ml) for 3 days and maturating the dendritic cells with IL4 (10 ng/ml), GM-CSF (800 IU/ml), LPS (10 ng/ml), IFN-γ (100 IU/ml), and the LRR1, GRINA and ZNF670 HLA-A11 SVP (2.5 μM) overnight. These monocyte derived dendritic cells were then cultured with CD8+ T cells which were isolated from another aliquot of PBMCs from the same donor using EasySep CD8 T cell isolation kit, STEMCELL Technologies. After 10 days of co-culture, expansion of antigen-specific T cells was detected by staining with tetramers (labelled with PE and APC) that have been loaded with the LRR1, GRINA and ZNF670 HLA-A11 SVP. […] Antigen-specific T-cells for these SVPs are not observed in CD8+ T cells in unstimulated PBMCs from healthy donors, whereas SVP-specific T-cells can be observed when they have been co-cultured with monocyte-derived dendritic cells that have been loaded with the SVP. In summary, antigen-specific CD8 T cells for LRR1, GRINA and ZNF670 were able to be generated in healthy donors, showing that these SVPs are immunogenic.

CD8+ T cells [4] = test: HLA-A11 tetramer CyTOF screen of gastric cancer patient PBMCs; assay type: cell-based, human; conditions: for CD8+ T-cells capable of recognizing the peptide antigen (HLA-A11 tetramer staining): PBMCs of 7 gastric cancer patients, validation cohort, CyTOF
Text: In one specific example, as shown schematically in FIG. 7, the method 150 may include HLA tetramer staining of peripheral blood, including preparing HLA tetramers by bacterially expressing and purifying biotin tagged HLA loaded with a UV cleavable peptide. Individual shared candidate antigens are then loaded onto the HLA molecule by UV mediated peptide exchange. Addition of heavy metal barcoded streptavidin causes formation of a tetramer comprising a shared candidate antigen. Peripheral blood (e.g. PBMC) from one or more cohort of patients having the medical condition is stained with a pool of the HLA tetramer and analysis is then done using CyTOF.
(§1) To determine if GC patients have CD8+ T cells that target any of the 77 peptides that were identified in Example 2, a CyTOF screen was conducted on a new cohort of GC patients (the Validation cohort) using MHC tetramer staining of peripheral blood. The CyTOF screen was performed as described in Leong and Newell (2015). Chemically synthesized peptides were supplied by Mimotopes and were stored as dry powder at −20° C. These peptides were loaded onto biotinylated HLA-A11 by UV-mediated exchange. Streptavidin labelled with three heavy metal barcodes was bound to the peptide loaded HLA-A11 to make the HLA-tetramers used for staining peripheral blood (FIG. 7). HLA-A11 tetramer staining of 7 gastric cancer patients derived PBMCs was performed (FIG. 12(a)) and control peptides against the Epstein-Bar Virus (EBV) viral antigen were incorporated as positive control (FIG. 13). […] This antigen was generated from an alternative splicing event of the MARK3 gene identified in Example 2 (FIG. 11(b)). The sequence of the MARK3 splice variant antigen used in the CyTOF studies was RNMSFRIK (SEQ ID NO: 1) and the EBV peptide sequence was […] (SEQ ID NO: 2). […] Patient SC020 was also positive for T Cells that reacted with the positive control peptide from the EBV (FIG. 13). The presence of the MARK3 splice variant antigen in a fresh PBMC isolate from gastric cancer patient, SC020, was further confirmed by a FACS analysis using fluorescently labelled MARK3-A11-RNMSFRIK peptide tetramers (FIG. 12(b)).

CTLs = test: ELISPOT assay for IFN-γ in PBMCs from healthy donors; assay type: cell-based, human; conditions: PBMCs from healthy donors with or without stimulation with peptide
Description: T cells having a shared splice variant antigen, such as MARK3, can be expanded ex-vivo. In the case of MARK3, PBMC were obtained from healthy donors. An aliquot of these PBMCs was used to isolate monocytes (Human Monocyte Isolation Kit, STEMCELL Technologies) for subsequent differentiation to dendritic cells (ImmunoCult Dendritic Cell Culture kit, STEMCELL Technologies). These monocyte derived dendritic cells were treated with mitomycin C (30 μg/ml) to prevent outgrowth of these cells. These dendritic cells were then loaded with MARK3 peptide and used as antigen-presenting cells. CD8+ T cells were isolated (EasySep Human CD8+ T cell isolation kit, STEMCELL Technologies) from another aliquot of PBMCs and these cells were co-cultured with the antigen-presenting cells to stimulate the expansion of MARK3 specific T cells. To generate sufficient number of MARK3-specific T cells for functional characterisation or TCR identification, MARK3 peptide loaded monocyte derived dendritic cells or artificial antigen presenting cells may be used to further stimulate expansion of MARK3 specific T cells. Expansion of MARK3 specific T cells using the above method can be used for the treatment of patients.
Characterization of the MARK3 antigen and CD8+T lymphocytes was carried out by first determining whether MARK3 specific CTLs could be expanded in healthy donor PBMCs (as shown in Example 6). […]

CD8 T cells = test: FACS analysis with fluorescently labelled A11 MHC tetramers; assay type: cell-based, human; conditions: fresh PBMC isolate from gastric cancer patient SC020
Description: as §1, with “The presence of the MARK3 splice variant antigen in a fresh PBMC isolate from gastric cancer patient, SC020, was further confirmed by a FACS analysis using fluorescently labelled MARK3-A11-RNMSFRIK peptide tetramers (FIG. 12(b)).” left out

[5] = target: T1, MARK3 splice variant (inclusion of exon 24; MARK3 isoforms 1 and 3) peptide on HLA-A*11 (human); test: multimer staining
T1 peptide: RNMSFRFIK

[6] = listed as MARK3 splice variant antigen

With “VTSPSRRSK (CAMKK1 splice variant antigen)” the “antigen specific CD8+ T cells detected in CRC patients” value (CD8+ T cells [1]) was “could be identified in one or more CRC patients”.

With “SYHSIPSLPRF (LRR1 splice variant antigen)” the “antigen specific CD8+ T cells detected in CRC patients” value (CD8+ T cells [2]) was “detected in CRC patients” and the “antigen specific CD8+ T cells detected in CRC patients” value (CD8+ T cells [2]; listed as SEQ ID NO: 51) was “detected”.

For VIVSASRTK (YAF2 splice variant antigen), the “antigen specific CD8+ T cells detected in CRC patients” value (CD8+ T cells [1]) was “could be identified in one or more CRC patients”.

In the case of “SIRQAFIRK (GRINA splice variant antigen)”, the “antigen specific CD8+ T cells detected in CRC patients” value (CD8+ T cells [1]) is reported as “could be identified in one or more CRC patients” and the “expansion of antigen-specific CD8+ T cells (immunogenicity)” value (from here on “expansion”) (CD8+ T cells [3]) is reported as “observed only after stimulation; also recorded: immunogenic”.

For “SSCSSCPLSK (EBV peptide sequence) [control peptide against the Epstein-Bar Virus (EBV) viral antigen, positive control, reference compound]”, the “CD8+ T-cells capable of recognizing the peptide antigen (HLA-A11 tetramer staining)” value (from here on “CD8+ T-cells capable”) (CD8+ T cells [4]) was “positive”.

For “SSFYALEEK (NBPF9 splice variant antigen)”, the “number of CRC patients in which detected” value (CD8+ T cells [1]) was “two” and the “antigen specific CD8+ T cells detected in CRC patients” value (CD8+ T cells [1]) was “could be identified in one or more CRC patients”.

For “KWPPATETL (MZF1 spliced variant antigen)”, the “antigen specific CD8+ T cells detected in CRC patients” value (CD8+ T cells [2]) was “detected”.

With “SCVSPSSELK (ZNF670 splice variant antigen)” the “number of CRC patients in which detected” value (CD8+ T cells [1]) was “two”, the “antigen specific CD8+ T cells detected in CRC patients” value (CD8+ T cells [1]) was “could be identified in one or more CRC patients” and the “expansion” value (CD8+ T cells [3]) was “observed only after stimulation; also recorded: immunogenic”.

For “SQLDFVKTRK (PARD3 splice variant antigen)”, the “antigen specific CD8+ T cells detected in CRC patients” value (CD8+ T cells [1]) was “could be identified in one or more CRC patients”.

For SLPRFGYRK (LRR1 splice variant antigen), the “antigen specific CD8+ T cells detected in CRC patients” value (CD8+ T cells [1]) was “could be identified in one or more CRC patients”, the “antigen specific CD8+ T cells detected in CRC patients” value (CD8+ T cells [1]; listed as SEQ ID NO: 36) was “detected” and the “antigen specific CD8+ T cells detected in CRC patients” value (CD8+ T cells [1]; listed as SLPRFGYRK) was “detected in CRC patients”. For the same molecule, the “expansion” value (CD8+ T cells [3]) was “observed only after stimulation; also recorded: immunogenic”.

For “LTMAVKAEK (ZC3HAV splice variant antigen) [ZC3HAV1]”, the “antigen specific CD8+ T cells detected in CRC patients” value (CD8+ T cells [1]) was “could be identified in one or more CRC patients”.

For “RNMSFRFIK (MARK3 splice variant) [MARK3 peptide]”, the “positive hit out of 7 samples” value (CD8+ T cells [4]; CyTOF screen, 7 GC patients) was 14%, the “CD8+ T-cells capable” value (CD8+ T cells [4]) was “one out of 7” and the “CD8+ T-cells capable” value (CD8+ T cells [4]; [6]) was “one of the patients, SC020, was found to be positive”. The “CD8+ T-cells capable” value (CD8+ T cells [4]; listed as MARK3 splice variant peptide) was “has CTLs that react”, the “IFN-γ secreting CTLs” value (CTLs) was “IFN-γ secreting CTLs are only observed when PBMCs were stimulated with MARK3 peptide” and the “IFN-γ secreting CTLs” value (CTLs; [6]) was “antigenic”. For the same molecule, the “presence of antigen-specific CD8 T cells confirmed by FACS” value (CD8 T cells) was “confirmed”.

B1: MARK3-specific TCR (MARK3 TRA chain and MARK3 TRB chain) (TCR, V domains shown)
Valpha: SQKIEQNSEALNIQEGKTATLTCNYTNYSPAYLQWYRQDPGRGPVFLLLIRENEKEKRKERLKVTFDTTLKQSLFHITASQPADSATYLCAPYTGGFKTIFGAGTRLFVKA
Vbeta: DTGVSQNPRHKITKRGQNVTFRCDPISEHNRLYWYRQTLGQGPEFLTYFQNEAQLEKSRLLSDRFSAERPKGSFSTLEIQRTEQGDSAMYLCASSSPRVGYGYTFGSGTRLTVV
B1: recognises [5].

Reference: patent US20230346940A1, “Method And System For Identifying And Validating Shared Candidate Antigens And Shared Antigen-Specific T Lymphocyte Pairs” (National University of Singapore, priority 2019, published 2023)
